Test results as given in patent EP4494466A1, “SULFUR-CONTAINING COMPOUNDS AND USE THEREOF” (Consejo Superior de Investigaciones Científicas (CSIC), priority 2023, dated 2025).

What was measured:
[1] = tested on: Aspergillus niger; assay: Antifungal activity, spore germination inhibition growth assay (MTT); assay type: cell-based; conditions: A. niger spores, 24 h incubation at 28 °C, 4 replicates
Protocol: (§1) The fungal species Aspergillus niger and Botrytis cinerea came from the fungal collection of institute de Ciencias Agrarias-CSIC, Madrid, Spain where they are maintained. The antifungal activity of the hydrolate extract and fractions were determined using a modified spore germination inhibition growth assay (Sainz, P. et al. Chemical composition and biological activities of Artemisia pedemontana subsp. assoana essential oils and hydrolate. Biomol. 2019, 9). The hydrolate extract or fractions were dissolved in dimethyl sulfoxide (DMSO) at 1% and evaluated at the final concentrations indicated.
(§2) The spore suspensions were 7.5 × 10^5 cells/mL in NaCl 0.9% for A. niger and 1 × 10^7 cells/mL in distilled water for B. cinerea. Amphotericin B (5 µg/mL) was used as a positive control. The samples and spore suspensions (4 replicates) were placed on 96-well plates and incubated for 24 h (28 °C for A. niger and 25 °C for B. cinerea). After the incubation process, 25 µL of an MTT (5 mg/mL) plus menadione (1 mM) solution in RMPIMOPS were added, the plates were incubated again for 3 h, the medium was removed, 200 µL of acidic isopropanol (95% isopropanol and 5% 1 M HCl) was added, and the plates were incubated for another 30 min. The absorbance was read at 490 nm in an Elisa reader. The IC50 values (the effective dose to give 50% inhibition) were calculated by a regression curve of % spore germination inhibition on log dose.

[2] = tested on: H. lusitanicum; assay: Ixodicidal activity on larvae, cellulose contact toxicity; assay type: in vivo, Hyalomma lusitanicum; conditions: 24 h contact with treated cellulose, Probit Analysis
Protocol: H. lusitanicum engorged female ticks were collected in central Spain (Finca La Garganta, Ciudad Real) from their host (deer) and maintained at 22-24 °C and 70% RH until oviposition and egg hatching. Resulting larvae (4-6 weeks old) were used for the bioassays (Galisteo Pretel, A. et al. Germacrone derivatives as new insecticidal and acaricidal compounds: a structure-activity relationship. Mol. 2019, 24). Briefly, 50 µL of test solution were added to 25 mg of powdered cellulose at different concentrations (initial concentration of 20 mg/ml) and the solvent was evaporated. For each test, three replicates with 20 larvae each were used. Dead ticks were counted after 24 h of contact with the treated cellulose at the environmental conditions described, using a binocular magnifying glass. The larvicidal activity data are presented as percent mortality corrected according to Schneider-Orelli's formula (Schneider-Orelli, O. Entomologisches praktikum: Einführung in die land- und forstwirtschaftliche Insektenkunde; aus dem entomologischen institut der eidgenössischen technischen hochschule in Zürich; Sauerländer, 1947). Effective lethal doses (LC50 and LC90, the concentration that kills 50% or 90% of the organisms, respectively) were calculated by Probit Analysis (5 serial dilutions, STATGRAPHICS Centurion XVI, version 16.1.02, Statgraphics Technologies, Inc, P.O. Box 134, The Plains, Virginia 20198, USA).

[3] = tested on: Botrytis cinerea; assay: Antifungal activity, spore germination inhibition growth assay (MTT); assay type: cell-based; conditions: B. cinerea spores, 24 h incubation at 25 °C, 4 replicates
Protocol: as §1, §2

SMILES | LD50 (95% Confidence Limits) [1] | LD50 (95% Confidence Limits) [2] | LD90 (95% Confidence Limits) [2] | LD50 (95% Confidence Limits) [3]
C=CCSCC(C=O)=CC [Compound 1, 2-((allylthio)methyl)but-2-enal] | 78.07 (63.96-95.28)µg/mL | 8.42 (7.72-10.07) µg/mg | 15.62 (13.79-18.38) µg/mg | 
O=CC1=CCCSC1 [Compound 3, 5,6-dihydro-2H-thiopyran-3-carbaldehyde] | 16.96 (7.98-36.03) µg/mL |  | 3.57 (3.20-4.23) µg/mg | 8.79 (5.36-14.43) µg/mL
